Experimental data: patent US20120302616A1, “METHOD OF TREATMENT OF OBSESSIVE COMPULSIVE DISORDER WITH ONDANSETRON” (priority 2010, published 2012)
Values joined by “and” are separate entries in the source; they are usually repeats but may differ in a detail not shown here. Equal values may be shown once.

What was measured:
[1] = tested on: patients with treatment-resistant OCD; assay: Ondansetron augmentation of SRI plus antipsychotic therapy, single-blind 12-week study (YBOCS, CGI, MADRS); type: in vivo, human
Source text: Between March 2008 and November 2008, fourteen adults aged 18 to 55 were enrolled in a study at the Institute for Neuroscience, Florence, Italy. […] All diagnoses were established utilizing a structured interview, the Structured Clinical Interview for DSM IV Axis I Disorders (SCID I). (See Spitzer, R. L. et al. ARCH GEN PSYCHIATRY 49(8):624-649) Potential subjects with a history of alcohol or substance abuse, current severe depressive symptoms, bipolar disorder, panic disorder, schizophrenia, other psychiatric conditions, heart disease, arrhythmia, liver problems (including cirrhosis), seizures, glaucoma or serious medical disease were excluded. Patients with hoarding as their only OCD symptom and women of childbearing potential not using a medically acceptable contraceptive method were also excluded. After being fully informed about the study and signing an informed consent approved by the Internal Institutional Review Board, subjects were administered an ondansetron hydrochloride (oral solution) dosage of 0.25 mg twice a day for 6 weeks, followed by 0.5 mg twice a day for 6 weeks for a total observation period of 12 weeks. […] The Y-BOCS, Montgomery-Asberg Depression Rating Scale (MADRS) (see Montgomery, S. A., BR J PSYCHIATRY 1979; 134:382-389) was administered at screening and baseline, and these assessments were repeated at every follow-up visit at 2-week intervals, along with the Clinical Global Impressions-Improvement (CGI-I) rating (see Guy, W. ECDEU Assessment Manual for Psychopharmacology. US Dept Health, Education, and Welfare publication (ADM) 76-338. Rockville, Md.: National Institute of Mental Health; 1976:218-222) and an unpublished Drug Effect scale. The Drug Effect scale asked subjects to rate “How anxious are you now?” on a scale of zero (not at all) to 10 (“the most anxious I have ever been”). Similar rating questions have been “Do you experience appearance or increment in frequency of headaches?”, “Do you experience appearance or increment in frequency of headaches fatigue?” and “Do you experience appearance or increment in frequency of headaches constipation” and so on regarding other common ondansetron side effects (diarrhea, urinary retention, itching, and dizziness). Furthermore, each evening during the first week of study medication, a study psychiatrist called the subject to ask for major or unexpected collateral effects (as chest pain, an unexplained skin rash, or tremors.). […] (See […]. et al., AM J PSYCHIATRY 1997; 154:320-321) Subjects with MADRS scores ≧18 were excluded. Ratings were administered by an investigator who was blind to the treatment condition of the patients. Given the small sample size, mean changes from baseline in rating scales were tested with a non-parametric method based on ranks (Wilcoxon signed rank test), using a two-tailed significance level of p≦0.05. Relationships among rated and demographical variables were tested with Spearman's rank correlation tests, using a two-tailed significance level of p≦0.05. Age, baseline OCD severity, and depressive symptoms were controlled for by stratifying through the Mantel-Haenszel χ2 test. Body mass index (BMI) was adjusted given the differences of ondansetron bioavailability according to BMI.

[2] = tested on: patients with treatment-resistant OCD; assay: Side effects and vital signs in the SRI plus antipsychotic augmentation study; type: in vivo, human
Description: The Y-BOCS, Montgomery-Asberg Depression Rating Scale (MADRS) (see Montgomery, S. A., BR J PSYCHIATRY 1979; 134:382-389) was administered at screening and baseline, and these assessments were repeated at every follow-up visit at 2-week intervals, along with the Clinical Global Impressions-Improvement (CGI-I) rating (see Guy, W. ECDEU Assessment Manual for Psychopharmacology. US Dept Health, Education, and Welfare publication (ADM) 76-338. Rockville, Md.: National Institute of Mental Health; 1976:218-222) and an unpublished Drug Effect scale. The Drug Effect scale asked subjects to rate “How anxious are you now?” on a scale of zero (not at all) to 10 (“the most anxious I have ever been”). Similar rating questions have been “Do you experience appearance or increment in frequency of headaches?”, “Do you experience appearance or increment in frequency of headaches fatigue?” and “Do you experience appearance or increment in frequency of headaches constipation” and so on regarding other common ondansetron side effects (diarrhea, urinary retention, itching, and dizziness). Furthermore, each evening during the first week of study medication, a study psychiatrist called the subject to ask for major or unexpected collateral effects (as chest pain, an unexplained skin rash, or tremors.). […] (See Mittmann, N. et al., AM J PSYCHIATRY 1997; 154:320-321) Subjects with MADRS scores ≧18 were excluded. Ratings were administered by an investigator who was blind to the treatment condition of the patients.
One patient reported a mild increase in anxiety levels, which lasted only one night. No change in mean pulse rate or mean blood pressure was observed. […] The daily dose of 1 mg/day divided in twice daily administration, approximately 5% of the minimum dose recommended for emesis and nausea treatment was reached after 6 weeks and maintained until the 12th week.

[3] = tested on: mesenteric bed or the nerves in the heart; conditions: animal studies; cited from earlier work
[4] = End of 6th week, Non responder (n = 5)
[5] = End of 6th week, Responder (n = 9)
[6] = End of 12th week, Non responder (n = 5)
[7] = End of 12th week, Responder (n = 9)
[8] = from baseline, individual patients 1-14
[9] = first 2 weeks of treatment, n=14

In the case of `Cc1nccn1CC1CCc2c(c3ccccc3n2C)C1=O` (stereo not shown) [ondansetron], the “YBOCS Score” value ([1]; 6 weeks, individual patients 1-14) is reported as 25 (3×) and 28 and 17 (2×) and 16 and 27 and 26 and 24 (3×) and 19 and 21, the “average YBOCS score decrease of the whole group” value ([1]; 6 weeks, n=14) is reported as 16% and the “patients reaching YBOCS criteria for treatment response (decrease of ≧25%)” value ([1]; 12th week, 9/14) is reported as 64.2%. For the same compound, the “patients very much improved or much improved (CGI-I 1 or 2)” value ([1]; 12th week, of 14) was “seven”, the “YBOCS Score” value ([1]; 12 weeks, individual patients 1-14) was 25 (3×) and 15 (2×) and 14 and 30 and 23 and 22 (2×) and 24 and 18 and 17 and 20 and the “average YBOCS score decrease of the whole group” value ([1]; 12 weeks, n=14) was 23%. The “patients with greater than 25% improvement in OCD symptoms” value ([1]; 12 weeks, n=14) was “Sixty-four”, the “CGI (mean)” value [1, 4] was 4.6 and the “MADRS (mean)” value [1, 4] was 8.0. The “CGI (mean)” value [1, 5] was 3.4, the “MADRS (mean)” value [1, 5] was 6.7 and the “CGI (mean)” value [1, 6] was 4.8. For the same compound, the “MADRS (mean)” value [1, 6] was 7.6, the “YBOCS (mean)” value [1, 6] was 21.4 and the “CGI (mean)” value [1, 7] was 2.3. The “MADRS (mean)” value [1, 7] was 6.8, the YBOCS score decrease ([1]; Patient 11 (citalopram 60 mg/day and risperidone 2 mg/day), 12th week) was at least 35% and the “Mean MADRS scores change from baseline” value ([1]; baseline to the end of week 1) was “did not change significantly”. The “YBOCS Percent Reduction at 6 weeks” value [1, 8] was 20.00% (2×) and 15.00% and .00%, the “YBOCS Percent Reduction at 12 weeks” value [1, 8] was 28.57% and 25.00% (2×) and 30.00% and the “patients with significant improvement in OCD symptoms” value ([1]; out of 14, within 12 weeks of treatment) was 9. The “Clinical Global Impressions-Improvement (CGI-I) scores” value ([1]; through week 12) was “improved concurrent with improvement in the YBOCS scores”, the “outcome after discontinuation of the ondansetron” value ([1]; two responder patients) was “experienced worsening” and the “subjects with significant or lasting side effects (such as constipation)” value ([2]; 12 weeks) was “None”. The “subjects with significant side effects or worsening of OC symptoms” value ([2]; at 6 weeks, fourteen subjects) was “None”, the “patients with decreased appetite” value [2, 9] was “two” and the patients with headache [2, 9] was “two”. The “patients with mild increase in anxiety levels” value ([2]; lasted only one night, n=14) was “One”, the “mean pulse rate or mean blood pressure” value ([2]; n=14) was “No change” and the Side effects severity ([2]; throughout the study, n=14) was “mild to moderate”. For the same compound, the “effect on the mesenteric bed or the nerves in the heart” value [3] was “did not appear to have effect”.
